Laboratory results reported in PubChem BioAssay (NCI).
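GI50 = concentration required for 50% inhibition of growth. TGI is the concentration that stops growth completely.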

Key:
Assay in all cases: NCI-60 cell line screen, 384-well format
[1] = test system: 786-0 renal
[2] = test system: A498 renal
[3] = test system: A549 NSCLC
[4] = test system: ACHN renal
[5] = test system: BT-549 breast
[6] = test system: CAKI-1 renal
[7] = test system: CCRF-CEM leukemia
[8] = test system: COLO 205 colon
[9] = test system: DU-145 prostate
[10] = test system: EKVX NSCLC
[11] = test system: HCC-2998 colon
[12] = test system: HCT-116 colon
[13] = test system: HCT-15 colon
[14] = test system: HL-60(TB) leukemia
[15] = test system: HOP-62 NSCLC
[16] = test system: HOP-92 NSCLC
[17] = test system: HT29 colon
[18] = test system: IGROV1 ovarian
[19] = test system: K-562 leukemia
[20] = test system: KM12 colon
[21] = test system: LOX IMVI melanoma
[22] = test system: M14 melanoma
[23] = test system: MALME-3M melanoma
[24] = test system: MCF7 breast
[25] = test system: MDA-MB-231 breast
[26] = test system: MDA-MB-435 melanoma
[27] = test system: MDA-MB-468 breast
[28] = test system: MOLT-4 leukemia
[29] = test system: NCI-H226 lung
[30] = test system: NCI-H23 lung
[31] = test system: NCI-H322M lung
[32] = test system: NCI-H460 NSCLC
[33] = test system: NCI-H522 lung
[34] = test system: NCI/ADR-RES ovarian
[35] = test system: OVCAR-3 ovarian
[36] = test system: OVCAR-4 ovarian
[37] = test system: OVCAR-5 ovarian
[38] = test system: OVCAR-8 ovarian
[39] = test system: PC-3 prostate
[40] = test system: RPMI-8226 leukemia
[41] = test system: RXF 393 renal
[42] = test system: SF-268 CNS
[43] = test system: SF-295 CNS
[44] = test system: SF-539 CNS
[45] = test system: SK-MEL-2 melanoma
[46] = test system: SK-MEL-28 melanoma
[47] = test system: SK-MEL-5 melanoma
[48] = test system: SK-OV-3 ovarian
[49] = test system: SN12C renal
[50] = test system: SNB-19 CNS
[51] = test system: SNB-75 CNS
[52] = test system: SR leukemia
[53] = test system: SW-620 colon
[54] = test system: T-47D breast
[55] = test system: TK-10 renal
[56] = test system: U251 glioblastoma
[57] = test system: UACC-257 melanoma
[58] = test system: UACC-62 melanoma
[59] = test system: UO-31 renal

CO[C@H]1/C=C/C[C@H](C)[C@@H](C)S(=O)(=O)NC(=O)c2ccc3c(c2)N(C[C@@H]2CC[C@H]21)C[C@@]1(CCCc2cc(Cl)ccc21)CO3
GI50 [1]: 4.4 µM | TGI [1]: 15.8 µM | GI50 [2]: 3.29 µM | TGI [2]: 12.5 µM | GI50 [3]: 3.37 µM | TGI [3]: 11.1 µM | GI50 [4]: 4.5 µM | TGI [4]: 14.7 µM | GI50 [5]: 1.65 µM | TGI [5]: 3.33 µM | GI50 [6]: 11.3 µM | TGI [6]: 23.5 µM | GI50 [7]: 0.468 µM | TGI [7]: 1.11 µM | GI50 [8]: 4.06 µM | TGI [8]: 11.3 µM | GI50 [9]: 3.87 µM | TGI [9]: 13.1 µM | GI50 [10]: 1.98 µM | TGI [10]: 7.23 µM | GI50 [11]: 1.62 µM | TGI [11]: 3.84 µM | GI50 [12]: 2.93 µM | TGI [12]: 8.98 µM | GI50 [13]: 3.39 µM | TGI [13]: 10.6 µM | GI50 [14]: 0.021 µM | TGI [14]: 0.0423 µM | GI50 [15]: 2.61 µM | TGI [15]: 6.27 µM | GI50 [16]: 2.13 µM | TGI [16]: 5.71 µM | GI50 [17]: 3.59 µM | TGI [17]: 12.4 µM | GI50 [18]: 3.71 µM | TGI [18]: 13.4 µM | GI50 [19]: 2 µM | TGI [19]: 5.52 µM | GI50 [20]: 3.97 µM | TGI [20]: 13.5 µM | GI50 [21]: 2.29 µM | TGI [21]: 4.18 µM | GI50 [22]: 2.07 µM | TGI [22]: 4.4 µM | GI50 [23]: 2.83 µM | TGI [23]: 7.6 µM | GI50 [24]: 1.31 µM | TGI [24]: 4 µM | GI50 [25]: 3.64 µM | TGI [25]: 9.55 µM | GI50 [26]: 1.98 µM | TGI [26]: 4.87 µM | GI50 [27]: 0.339 µM | TGI [27]: 1.07 µM | GI50 [28]: 0.263 µM | TGI [28]: 0.794 µM | GI50 [29]: 3.1 µM | TGI [29]: 9.05 µM | GI50 [30]: 0.758 µM | TGI [30]: 2.2 µM | GI50 [31]: 6.3 µM | TGI [31]: 18.4 µM | GI50 [32]: 1.78 µM | TGI [32]: 3.44 µM | GI50 [33]: 0.95 µM | TGI [33]: 2.27 µM | GI50 [34]: 1.74 µM | TGI [34]: 3.64 µM | GI50 [35]: 1.71 µM | TGI [35]: 3.22 µM | GI50 [36]: 1.33 µM | TGI [36]: 3.39 µM | GI50 [37]: 8.16 µM | TGI [37]: 20.1 µM | GI50 [38]: 2.81 µM | TGI [38]: 7.42 µM | GI50 [39]: 3.93 µM | TGI [39]: 14 µM | GI50 [40]: 0.0172 µM | TGI [40]: 0.0405 µM | GI50 [41]: 0.689 µM | TGI [41]: 2.35 µM | GI50 [42]: 2.45 µM | TGI [42]: 7.41 µM | GI50 [43]: 1.8 µM | TGI [43]: 3.72 µM | GI50 [44]: 1.75 µM | TGI [44]: 3.42 µM | GI50 [45]: 0.211 µM | TGI [45]: 0.677 µM | GI50 [46]: 2.67 µM | TGI [46]: 6.64 µM | GI50 [47]: 1.66 µM | TGI [47]: 3.07 µM | GI50 [48]: 4.24 µM | TGI [48]: 13.1 µM | GI50 [49]: 2.92 µM | TGI [49]: 7.99 µM | GI50 [50]: 3.81 µM | TGI [50]: 11.9 µM | GI50 [51]: 3.6 µM | TGI [51]: 9.04 µM | GI50 [52]: 0.0287 µM | TGI [52]: 0.173 µM | GI50 [53]: 2.12 µM | TGI [53]: 4.77 µM | GI50 [54]: 2.79 µM | TGI [54]: 11.1 µM | GI50 [55]: 4.88 µM | TGI [55]: 15.7 µM | GI50 [56]: 3.2 µM | TGI [56]: 9.92 µM | GI50 [57]: 2.95 µM | TGI [57]: 9.81 µM | GI50 [58]: 0.284 µM | TGI [58]: 0.762 µM | GI50 [59]: 6.3 µM | TGI [59]: 18.2 µM
